A short description of data set [1]: Plasma stability. The format is in vitro ADME, mouse. The following applies: for Mouse plasma stability: % remaining after 6h; for Plasma Stability: S1 Data. The procedure: Pooled plasma was thawed in a water bath at 37°C and centrifuged at 4,000 rpm for 5 min to remove any clots. Plasma solution was prepared by adding PBS (pH 7.4) in a 1:1 ratio. It was not necessary to adjust the pH of the final plasma solution. Plasma:PBS and test compound solutions were added to the incubation plate at a final concentration of 2 μM. The plate was incubated in a shaker at 37°C and 50 rpm. Samples were removed (25 μL) from each well of the incubation plate at multiple timepoints and added to a plate containing 100 μL of quench solution (200 ng/mL tolbutamide in 50% acetonitrile/methanol) to precipitate protein. The quenched aliquots were centrifuged at 4000 rpm for 10 min at 5°C. An aliquot of supernatant was transferred from each well to a plate for analysis by LC-MS/MS. Results were calculated as the percentage of remaining parent compound in plasma after incubation.

Data set [2] concerns the target T1, Alpha1A (Homo sapiens, UniProt P35348).
T1 construct: expressed in transfected cells; host or cells: CHO
T1 sequence (P35348 1-466): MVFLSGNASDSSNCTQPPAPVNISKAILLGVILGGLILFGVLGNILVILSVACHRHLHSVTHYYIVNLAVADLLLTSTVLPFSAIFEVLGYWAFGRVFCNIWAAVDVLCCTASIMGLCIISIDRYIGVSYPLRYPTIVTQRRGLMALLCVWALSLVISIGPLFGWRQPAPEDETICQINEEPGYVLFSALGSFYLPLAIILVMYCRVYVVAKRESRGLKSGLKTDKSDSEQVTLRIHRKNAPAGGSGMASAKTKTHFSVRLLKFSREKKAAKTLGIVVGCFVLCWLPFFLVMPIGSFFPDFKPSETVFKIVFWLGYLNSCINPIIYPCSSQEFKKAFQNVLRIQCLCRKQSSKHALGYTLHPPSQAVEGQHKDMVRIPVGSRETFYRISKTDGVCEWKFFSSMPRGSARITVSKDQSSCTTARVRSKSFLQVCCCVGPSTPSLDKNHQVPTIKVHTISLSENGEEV
Kind of data set: Bioprofiling 6pt Ag Alpha1A CHO. The format is cell-based. As to conditions: agonist readout. The method, then:
(§1) The compounds were evaluated across a panel of 20 liability targets (37 functional assays) which included functional cell-based GPCRs and ion channels in both agonist and antagonist readout, measuring calcium flux and biochemical functional assays for nuclear hormone receptors and phosphodiesterases using TR-FRET format, in a 6 point 1:3 dilution dose series (maximum final concentration of 10 μM).

Data set [3] in a line: Parallel artificial membrane permeability assay (PAMPA). The class given is in vitro ADME. The gist of the method: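 Compounds at 10μM final in PBS pH 6.5 (donor) against PBS pH 7.4 (acceptor) across lipid-coated membranes, incubated 5 h at 37°C. Donor, acceptor and T0 levels measured by LC-MS/MS to derive effective permeability (Pe); n = 3.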
(In general: PAMPA measures passive passage across an artificial lipid membrane.)

The target in data set [4] is T2, ETA (Homo sapiens, UniProt P25101).
T2 construct: expressed in transfected cells; host or cells: CHO
T2 sequence (P25101 21-427): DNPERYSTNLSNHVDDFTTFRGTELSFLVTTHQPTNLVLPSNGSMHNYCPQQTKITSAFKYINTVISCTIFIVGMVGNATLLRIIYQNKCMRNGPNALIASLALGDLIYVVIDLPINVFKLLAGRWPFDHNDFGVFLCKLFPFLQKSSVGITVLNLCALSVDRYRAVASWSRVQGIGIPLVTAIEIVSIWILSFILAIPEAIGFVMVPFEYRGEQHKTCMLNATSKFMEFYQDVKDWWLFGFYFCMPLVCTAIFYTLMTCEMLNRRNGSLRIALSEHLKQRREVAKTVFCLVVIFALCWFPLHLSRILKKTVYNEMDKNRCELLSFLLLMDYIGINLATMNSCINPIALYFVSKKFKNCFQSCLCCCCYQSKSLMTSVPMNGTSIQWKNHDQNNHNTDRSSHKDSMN
Kind of data set: Bioprofiling 6pt Antag ETA CHO. The format is cell-based. As to conditions: antagonist readout vs Endothelin-1 (ET-1). The method, then: as §1

Data set [5] concerns the target T3, Beta1 (Homo sapiens, UniProt P08588).
T3 construct: expressed in transfected cells; host or cells: CHO
Kind of data set: Bioprofiling 6pt Ag Beta1 CHO. The class given is cell-based. As to conditions: agonist readout. The procedure: as §1

Data set [6] concerns the target PDE3A (Homo sapiens, UniProt Q14432). Briefly: Bioprofiling 6pt Antag PDE3A. The format is biochemical. As to conditions: substrate cAMP. The method, then:
as §1

Data set [7] deals with T4, Kv11.1 (hERG) (Homo sapiens, UniProt Q12809).
T4 construct: host or cells: T-REx-CHO, doxycycline-induced
T4 sequence (Q12809 whole entry): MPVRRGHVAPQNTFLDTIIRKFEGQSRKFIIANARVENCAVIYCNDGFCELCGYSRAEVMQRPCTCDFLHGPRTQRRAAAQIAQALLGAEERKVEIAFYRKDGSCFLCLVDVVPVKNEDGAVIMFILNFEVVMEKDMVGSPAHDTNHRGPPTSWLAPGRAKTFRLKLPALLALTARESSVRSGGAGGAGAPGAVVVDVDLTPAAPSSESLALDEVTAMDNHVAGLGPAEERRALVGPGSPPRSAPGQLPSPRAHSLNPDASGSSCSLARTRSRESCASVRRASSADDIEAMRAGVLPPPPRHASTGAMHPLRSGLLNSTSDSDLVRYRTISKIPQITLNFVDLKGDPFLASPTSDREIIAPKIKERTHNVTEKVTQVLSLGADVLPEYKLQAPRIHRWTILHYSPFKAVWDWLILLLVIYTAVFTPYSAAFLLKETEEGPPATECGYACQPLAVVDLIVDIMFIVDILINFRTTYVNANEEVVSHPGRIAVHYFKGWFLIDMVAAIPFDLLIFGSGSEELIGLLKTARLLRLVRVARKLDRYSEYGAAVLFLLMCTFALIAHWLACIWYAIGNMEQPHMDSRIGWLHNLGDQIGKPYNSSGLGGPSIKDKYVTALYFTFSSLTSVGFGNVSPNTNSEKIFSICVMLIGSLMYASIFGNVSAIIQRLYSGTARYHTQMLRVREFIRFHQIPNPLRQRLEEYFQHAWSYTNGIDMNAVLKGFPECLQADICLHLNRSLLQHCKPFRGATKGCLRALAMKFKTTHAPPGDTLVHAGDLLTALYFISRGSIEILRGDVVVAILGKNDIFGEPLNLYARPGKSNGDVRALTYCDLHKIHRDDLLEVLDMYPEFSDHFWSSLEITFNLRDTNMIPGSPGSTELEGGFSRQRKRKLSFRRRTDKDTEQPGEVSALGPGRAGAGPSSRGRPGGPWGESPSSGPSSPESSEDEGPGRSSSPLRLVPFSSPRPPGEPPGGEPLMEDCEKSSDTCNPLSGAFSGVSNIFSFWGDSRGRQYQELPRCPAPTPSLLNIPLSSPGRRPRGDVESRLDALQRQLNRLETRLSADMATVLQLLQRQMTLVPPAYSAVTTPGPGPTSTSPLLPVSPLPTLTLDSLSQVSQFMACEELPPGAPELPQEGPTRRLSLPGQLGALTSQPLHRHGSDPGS
Briefly: hERG thallium influx assay. The class given is cell-based. The following applies: KCl, read-out: Bioprofiling 6pt Thallium Influx Antag Kv11.1 (hERG) CHO Human IC50. The method, then:
This was adapted from the literature method;[28] briefly, hERG functional activity was measured in an inducible hERG T-RExTM-CHO Cell line (ThermoFisher #K1237) using thallium influx as a surrogate indicator of potassium ion channel activity. Thallium enhances the fluorescent signal of BTC-AM dye (ThermoFisher #B6791). 384 well plates were seeded at 15,000 cells/well with doxycycline hyclate, included to induce expression of the hERG channel, and grown for 48 hours. Media was removed and cells were loaded with 4 μM dye for 90 mins in a low potassium buffer, dye was then removed and compound added to the cells in a high potassium buffer in a 6 point 1:3 dilution dose series (maximum final concentration of 30 μM). After 30 mins of compound incubation, channel activity was recorded upon addition of thallium buffer using a Tetra plate reader. The slope of the kinetic read was used to calculate channel activity.

The target of data set [8] is T5, 5-HT2A (Homo sapiens, UniProt P28223).
T5 construct: expressed in transfected cells; host or cells: CHO
T5 sequence (P28223 whole entry): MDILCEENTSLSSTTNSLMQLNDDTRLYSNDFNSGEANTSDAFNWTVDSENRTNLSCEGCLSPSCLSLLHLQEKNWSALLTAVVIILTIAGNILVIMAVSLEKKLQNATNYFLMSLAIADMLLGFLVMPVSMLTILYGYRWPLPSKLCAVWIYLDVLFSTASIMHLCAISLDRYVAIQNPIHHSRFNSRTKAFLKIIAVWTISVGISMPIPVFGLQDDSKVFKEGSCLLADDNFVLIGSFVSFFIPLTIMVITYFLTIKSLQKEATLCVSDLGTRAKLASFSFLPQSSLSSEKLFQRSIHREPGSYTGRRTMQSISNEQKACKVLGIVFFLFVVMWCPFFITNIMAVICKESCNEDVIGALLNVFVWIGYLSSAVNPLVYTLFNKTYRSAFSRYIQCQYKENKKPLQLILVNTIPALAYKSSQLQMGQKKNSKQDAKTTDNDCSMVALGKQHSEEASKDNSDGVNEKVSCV
Kind of data set: Bioprofiling 6pt Antag 5-HT2A CHO. The class given is cell-based. As to conditions: antagonist readout vs Serotonin (5-HT). The method, then:
as §1

The target of data set [9] is T2, ETA. Kind of data set: Bioprofiling 6pt Ag ETA CHO. As to conditions: agonist readout. The format is cell-based. The procedure: as §1
Data set [10] addresses T1, Alpha1A. Kind of data set: Bioprofiling 6pt Antag Alpha1A CHO. The format is cell-based. The following applies: antagonist readout vs A-61603. The procedure:
as §1

The subject of data set [11] is CHO. Kind of data set: Bioprofiling 6pt Ag CHO Hamster. The class given is cell-based. As to conditions: agonist readout. The method, then:
as §1

Data set [12] deals with T6, D2L (Homo sapiens, UniProt P14416).
T6 construct: expressed in transfected cells; host or cells: CHO
T6 sequence (P14416 whole entry): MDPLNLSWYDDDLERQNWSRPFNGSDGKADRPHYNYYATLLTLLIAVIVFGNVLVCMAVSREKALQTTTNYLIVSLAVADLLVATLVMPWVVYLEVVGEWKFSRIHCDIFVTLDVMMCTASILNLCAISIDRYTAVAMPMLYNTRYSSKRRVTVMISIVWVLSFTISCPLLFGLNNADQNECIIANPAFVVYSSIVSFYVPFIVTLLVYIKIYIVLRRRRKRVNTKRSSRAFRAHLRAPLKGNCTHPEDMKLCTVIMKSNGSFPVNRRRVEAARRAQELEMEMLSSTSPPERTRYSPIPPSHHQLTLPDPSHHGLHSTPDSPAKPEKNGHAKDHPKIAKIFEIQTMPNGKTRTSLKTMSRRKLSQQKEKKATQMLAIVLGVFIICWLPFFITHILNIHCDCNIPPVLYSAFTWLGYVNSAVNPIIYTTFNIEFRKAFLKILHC
Kind of data set: Bioprofiling 6pt Ag D2L CHO. The class given is cell-based. As to conditions: agonist readout. The procedure:
as §1

The mark [13] stands for this setting: PAMPA, S1 Data, read-out: PAMPA Pe.
Where [14] appears, read: passive permeability, read-out: PAMPA.

The structures appear in SMILES notation. Read-outs that look alike come from different tables or passages of the source.

T3 sequence (P08588 whole entry): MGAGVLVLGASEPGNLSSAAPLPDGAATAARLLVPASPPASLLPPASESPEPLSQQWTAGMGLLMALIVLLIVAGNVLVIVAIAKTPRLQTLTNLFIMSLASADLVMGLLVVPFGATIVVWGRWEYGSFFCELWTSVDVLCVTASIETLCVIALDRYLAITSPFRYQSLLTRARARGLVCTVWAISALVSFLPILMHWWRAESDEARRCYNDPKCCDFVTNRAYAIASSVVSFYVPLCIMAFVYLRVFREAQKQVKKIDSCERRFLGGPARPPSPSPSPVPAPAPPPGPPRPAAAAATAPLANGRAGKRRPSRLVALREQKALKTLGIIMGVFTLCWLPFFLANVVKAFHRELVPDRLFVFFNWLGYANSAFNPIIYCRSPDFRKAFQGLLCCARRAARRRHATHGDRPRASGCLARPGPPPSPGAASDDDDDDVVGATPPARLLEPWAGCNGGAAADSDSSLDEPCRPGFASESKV
Sequence of PDE3A (Q14432 whole entry): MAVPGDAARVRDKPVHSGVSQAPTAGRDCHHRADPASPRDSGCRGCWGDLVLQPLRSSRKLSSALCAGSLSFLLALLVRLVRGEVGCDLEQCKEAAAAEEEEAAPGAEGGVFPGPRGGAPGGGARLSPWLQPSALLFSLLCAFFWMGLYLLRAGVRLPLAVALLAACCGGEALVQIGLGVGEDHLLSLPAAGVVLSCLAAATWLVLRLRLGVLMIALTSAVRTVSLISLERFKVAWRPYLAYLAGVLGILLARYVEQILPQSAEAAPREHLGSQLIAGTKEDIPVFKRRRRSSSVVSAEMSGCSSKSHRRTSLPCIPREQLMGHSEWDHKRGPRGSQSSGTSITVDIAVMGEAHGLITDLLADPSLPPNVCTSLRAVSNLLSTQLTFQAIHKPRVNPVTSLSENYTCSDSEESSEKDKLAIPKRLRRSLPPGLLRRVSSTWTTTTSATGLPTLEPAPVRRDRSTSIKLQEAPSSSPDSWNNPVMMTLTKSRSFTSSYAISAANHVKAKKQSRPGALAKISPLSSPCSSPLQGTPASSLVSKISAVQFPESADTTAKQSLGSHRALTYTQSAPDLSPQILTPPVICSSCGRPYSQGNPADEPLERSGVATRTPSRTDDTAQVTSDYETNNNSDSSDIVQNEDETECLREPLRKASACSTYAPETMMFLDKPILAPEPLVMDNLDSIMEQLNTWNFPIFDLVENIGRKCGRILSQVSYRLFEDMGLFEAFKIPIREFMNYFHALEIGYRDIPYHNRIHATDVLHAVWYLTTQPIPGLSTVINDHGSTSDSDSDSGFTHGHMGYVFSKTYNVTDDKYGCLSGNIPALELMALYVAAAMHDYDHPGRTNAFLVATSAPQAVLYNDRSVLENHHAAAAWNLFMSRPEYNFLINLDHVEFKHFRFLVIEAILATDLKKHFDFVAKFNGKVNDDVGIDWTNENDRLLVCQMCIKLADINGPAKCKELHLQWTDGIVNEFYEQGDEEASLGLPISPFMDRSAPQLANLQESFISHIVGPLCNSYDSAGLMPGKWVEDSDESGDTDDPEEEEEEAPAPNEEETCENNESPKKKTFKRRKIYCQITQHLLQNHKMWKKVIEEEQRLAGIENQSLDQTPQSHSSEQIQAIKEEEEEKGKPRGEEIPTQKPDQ

As a reminder, the EC50 is the concentration needed to bring the measured effect to its halfway point. A low value points to higher potency in that assay. A word on the IC50: it is the concentration at which inhibition is half-maximal. Turning to `Cn1nccc1C(=O)Nc1nc2ccc(C#N)cc2n1CC(C)(C)C` [Compound 29, O=C(Nc1n(CC(C)(C)C)c(c2n1)cc(C#N)cc2)c3n(C)ncc3], the Mouse plasma stability in data set [1] stood at 99.8%. For the same compound, the “Plasma Stability” value in data set [1] is 99.80%. For the same compound, the EC50 in [2], in [5], in data set [9], in [11] and in data set [12] was above 10 µM throughout. In addition, the figures for the Papp at 5 h, 10 μM in [3] (setting [13]) and in [3] (setting [14]) were 8.71 ×10⁻⁶ cm/s and 4.7 ×10⁻⁶ cm/s, respectively. In addition, the IC50 in [4] was above 10 µM; in data set [6], above 10 µM; in data set [7], above 30 µM; in data set [8] it was above 10 µM; in [10] it was above 10 µM.

In data set [1], `N#Cc1ccc2nc(NC(=O)c3ccnc(C(F)(F)F)c3)n(CC(F)(F)F)c2c1` [Compound 44, O=C(c1ccnc(C(F)(F)F)c1)Nc2nc(ccc(C#N)c3)c3n2CC(F)(F)F] came in with a Mouse plasma stability of 111%. Further, the “Plasma Stability” value in data set [1] was 110.80%. Moreover, the half-maximal effective concentration (EC50) in data set [2], in data set [5], in data set [9], in data set [11] and in data set [12] was above 10 µM throughout. Besides, the Papp at 5 h, 10 μM in [3] (setting [13]) was determined as 2.32 ×10⁻⁶ cm/s; in data set [3] (setting [14]) it was 2.3 ×10⁻⁶ cm/s. The 50% inhibitory concentration (IC50) in data set [4] was above 10 µM; in [6] it was 2.7 µM; in [7] it was above 30 µM; in data set [8] it was above 10 µM; in [10] it was above 10 µM.

For `Cn1nc(C(F)(F)F)cc1C(=O)Nc1nc2ccc(C#N)cc2n1CC(F)(F)F` [Compound 39, O=C(c1cc(C(F)(F)F)nn1C)Nc2nc(ccc(C#N)c3)c3n2CC(F)(F)F], the Mouse plasma stability in [1] turned out to be 111%. Further, in data set [1], the “Plasma Stability” value is reported as 111%. In addition, the concentration for a half-maximal effect (EC50) in data set [2], in data set [5], in data set [9], in [11] and in [12] was above 10 µM in each case. Also, the figures for the Papp at 5 h, 10 μM in data set [3] (setting [13]) and in [3] (setting [14]) were 2.4 ×10⁻⁶ cm/s and 10 ×10⁻⁶ cm/s, respectively. For the same compound, the IC50 is above 10 µM in [4]; 3.32 µM in data set [6]; above 30 µM in data set [7]; above 10 µM in data set [8]; above 10 µM in data set [10].

With `COc1ccc(C(=O)Nc2nc3ccc(C#N)cc3n2CC(F)(F)F)cn1` [Compound 43, O=C(c1ccc(OC)nc1)Nc2nc(ccc(C#N)c3)c3n2CC(F)(F)F], in [1], the “Plasma Stability” value came out at 92.20%. Further, the EC50 in data set [2], in data set [5], in data set [9], in data set [11] and in data set [12] was above 10 µM each time. In data set [3] (setting [13]), the Papp at 5 h, 10 μM was 14.7 ×10⁻⁶ cm/s. Also, the concentration for half-maximal inhibition (IC50) in data set [4] is above 10 µM; in [6], above 10 µM; in data set [7], above 30 µM; in [8], above 10 µM; in data set [10], above 10 µM.

For `N#Cc1ccc2nc(NC(=O)c3ccc(C(F)(F)F)nc3)n(CC(F)(F)F)c2c1` [Compound 45, O=C(c1ccc(C(F)(F)F)nc1)Nc2nc(ccc(C#N)c3)c3n2CC(F)(F)F], the “Plasma Stability” value in [1] is 135%. Further, the 50% effective concentration (EC50) in data set [2], in data set [5], in data set [9], in [11] and in data set [12] was above 10 µM throughout. For the same compound, the Papp at 5 h, 10 μM in data set [3] (setting [13]) was 5.43 ×10⁻⁶ cm/s. Besides, the IC50 was above 10 µM in data set [4]; above 10 µM in data set [6]; above 30 µM in [7]; above 10 µM in [8]; above 10 µM in data set [10].

In [1], `Cn1nccc1C(=O)Nc1nc2ccc(C#N)cc2n1CC(F)(F)F` [Compound 30, O=C(c1ccnn1C)Nc2nc(ccc(C#N)c3)c3n2CC(F)(F)F] yielded a Mouse plasma stability of 107%. Moreover, the “Plasma Stability” value in [1] is recorded as 107%. Moreover, the 50% effective concentration (EC50) in data set [2], in [5], in data set [9], in data set [11] and in [12] was above 10 µM each time. Further, the Papp at 5 h, 10 μM in data set [3] (setting [13]) is 27.9 ×10⁻⁶ cm/s; in data set [3] (setting [14]), 7.9 ×10⁻⁶ cm/s. Also, the IC50 is above 10 µM in data set [4]; above 10 µM in data set [6]; above 30 µM in [7]; above 10 µM in data set [8]; above 10 µM in data set [10].
